Test results as given in BindingDB's records for patent WO2022098806 (MERCK SHARP & DOHME LLC, 2022).
Several values for one entry are separate records, joined by “and”; a condition that tells them apart may be missing. Equal entries are not always repeated.

molecular target: Mitogen-activated protein kinase kinase kinase kinase 1 (Homo sapiens, UniProt Q92918); experiment: HPK1-SLP76 TR-FRET ASSAY
Sequence (Q92918 whole entry): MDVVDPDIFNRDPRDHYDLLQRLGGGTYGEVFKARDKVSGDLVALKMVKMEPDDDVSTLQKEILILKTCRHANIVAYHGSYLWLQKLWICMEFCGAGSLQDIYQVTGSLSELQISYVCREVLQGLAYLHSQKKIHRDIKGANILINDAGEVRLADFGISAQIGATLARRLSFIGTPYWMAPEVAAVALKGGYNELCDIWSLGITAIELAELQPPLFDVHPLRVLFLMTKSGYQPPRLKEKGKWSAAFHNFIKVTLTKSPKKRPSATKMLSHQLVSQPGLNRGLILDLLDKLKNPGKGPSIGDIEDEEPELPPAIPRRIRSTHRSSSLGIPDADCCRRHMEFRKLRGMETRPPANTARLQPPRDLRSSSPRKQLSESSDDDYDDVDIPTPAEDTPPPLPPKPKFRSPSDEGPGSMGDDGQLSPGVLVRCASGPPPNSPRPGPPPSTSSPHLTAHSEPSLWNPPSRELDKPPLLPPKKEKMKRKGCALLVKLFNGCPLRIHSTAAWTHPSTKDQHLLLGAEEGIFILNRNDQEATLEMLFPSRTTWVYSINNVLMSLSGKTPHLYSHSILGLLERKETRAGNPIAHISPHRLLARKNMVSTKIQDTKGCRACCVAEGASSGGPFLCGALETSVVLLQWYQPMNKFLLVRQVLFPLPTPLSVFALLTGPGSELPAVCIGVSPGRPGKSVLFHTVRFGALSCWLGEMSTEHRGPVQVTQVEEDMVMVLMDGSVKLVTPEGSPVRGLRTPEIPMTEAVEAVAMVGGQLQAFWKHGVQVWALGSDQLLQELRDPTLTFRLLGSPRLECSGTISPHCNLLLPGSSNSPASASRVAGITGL

| SMILES | IC50 |
| --- | --- |
| Cc1c(-c2c(F)c(N)c3cnc(Nc4ccc(CS(C)(=O)=O)cc4F)nc3c2Cl)cnc2c1NCCO2 [WO2022098806, Compound 2-135] | 130 pM |
| COc1cc2c(cc1Nc1ncc3c(N)c(F)c(-c4cnc5c(c4C)NCCO5)cc3n1)CN(C)CC2 [WO2022098806, Compound 2-2] | 90 pM |
| CN1CCc2ccc(Nc3ncc4c(N)c(F)c(-c5cnc6c(c5Cl)NCCO6)cc4n3)cc2C1 [WO2022098806, Compound 2-124] | 50 pM and 30 pM |
| Cc1c(-c2cc3nc(Nc4ccc5c(c4)CN(C)CC5)ncc3c(N)c2F)cnc2cc[nH]c12 [WO2022098806, Compound 2-130] | 100 pM |
| CNC(=O)C(F)(F)c1ccc(Nc2ncc3c(N)c(F)c(-c4cnc5c(c4C)NCCO5)cc3n2)cc1 [WO2022098806, Compound 2-186] | 140 pM |
| COc1cc(C2CC2)ccc1Nc1ncc2c(N)c(F)c(-c3cnc4c(c3C)NCCO4)cc2n1 [WO2022098806, Compound 2-176] | 17000 pM |
| Cc1c(-c2cc3nc(Nc4ccc(CS(=O)(=O)CC(F)(F)F)cc4)ncc3c(N)c2F)cnc2c1NCCO2 [WO2022098806, Compound 2-149] | 190 pM |
| Cc1c(-c2cc3nc(Nc4ccc5c(c4)CC(C)(C)N(C)C5)ncc3c(N)c2F)cnc2c1NCCO2 [WO2022098806, Compound 2-126] | 90 pM |
| Cc1c(-c2c(F)c(N)c3cnc(Nc4ccc5c(c4)CN(C)CC54CC4)nc3c2C#N)cnc2c1NCCO2 [WO2022098806, Compound 2-109] | 50 pM |
| Cc1c(-c2cc3nc(Nc4ccc5c(c4)CN(C)CC5)ncc3c(N)c2F)cnc2c1NCC(C)(C)O2 [WO2022098806, Compound 2-166] | 60 pM |
| CC[C@@H]1COC(=O)N1c1ccc2cnc(Nc3cc4c(cc3OC)CCN(C)C4)nc2c1 [WO2022098806, Compound 3-13] | 1050 pM |
| COc1cc2c(cc1Nc1ncc3ccc(-c4cnccc4Cl)cc3n1)CNCC2 [WO2022098806, Compound 1-37] | 28000 pM |
| CN1Cc2cc(Nc3ncc4c(N)c(F)c(-c5cnc6c(c5Cl)NCCO6)cc4n3)ccc2C2(CC2)C1 [WO2022098806, Compound 2-152] | 70 pM |
| COc1cc2c(cc1Nc1ncc3c(N)c(F)c(-c4cnc5c(c4C)NCCO5)c(Cl)c3n1)CN(C(C)C)CC2 [WO2022098806, Compound 2-106] | 70 pM |
| CC[C@@H]1COC(=O)N1c1cc(N)c2cnc(Nc3cc4c(cc3OC)CCN(C)C4)nc2c1 [WO2022098806, Compound 3-15] | 3240 pM |
| CNC(=O)[C@H](C)c1ccc(Nc2ncc3cc(F)c(-c4cnc5c(c4C)NCCO5)cc3n2)cc1 [WO2022098806, Compound 1-117] | 70 pM |
| CC(=O)NCc1ccc(Nc2ncc3c(N)c(F)c(-c4cnc5c(c4C)NCCO5)cc3n2)cc1 [WO2022098806, Compound 2-30] | 80 pM |
| CC(=O)N1CCC[C@H]1c1ccc(Nc2ncc3c(N)c(F)c(-c4cnc5c(c4C)NCCO5)cc3n2)cc1 [WO2022098806, Compound 2-29] | 270 pM |
| Cc1c(-c2c(F)c(N)c3cnc(Nc4ccc5c(c4)CN(C)CC5)nc3c2Cl)cnc2c1NCCO2 [WO2022098806, Compound 2-180] | 60 pM and 20 pM |
| COc1cc2c(cc1Nc1ncc3ccc(Oc4ccc(C(=O)N5CCN(C(C)=O)CC5)cc4)cc3n1)CN(C)CC2 [WO2022098806, Compound 4-7] | 224000 pM |
| Cc1c(-c2cc3nc(Nc4ccc([C@@H]5CCN(C)C5=O)cc4)ncc3cc2F)cnc2c1NCCO2 [WO2022098806, Compound 1-125] | 60 pM |
| CNC(=O)c1ccc(Nc2ncc3c(N)cc(N4C(=O)OC[C@@H]4C)cc3n2)c(OC)c1 [WO2022098806, Compound 3-79] | 250 pM |
| Cc1ccc(F)cc1-c1cc2nc(Nc3ccc(CS(C)(=O)=O)cc3)ncc2c(N)c1F [WO2022098806, Compound 2-172] | 25000 pM |
| Cc1c(-c2cc3nc(Nc4ccc([C@@H](C)S(C)(=O)=O)cc4)ncc3c(N)c2F)cnc2c1NCCO2 [WO2022098806, Compound 2-63] | 90 pM |
| COc1cc2c(cc1Nc1ncc3ccc(-c4cnn(CC(C)O)c4)cc3n1)CN(C)CC2 (stereo not drawn) [WO2022098806, Compound 1-102] | 22000 pM |
| Cc1c(-c2cc3nc(Nc4ccc5c(c4)CCS5(=O)=O)ncc3c(N)c2F)cnc2c1NCCO2 [WO2022098806, Compound 2-43] | 80 pM |
| Cc1c(-c2c(F)c(N)c3cnc(Nc4ccc(S(C)(=O)=O)cc4)nc3c2Cl)cnc2c1NCCO2 [WO2022098806, Compound 2-103] | 90 pM |
| Cc1c(-c2cc3nc(Nc4ccc5c(c4)CN(C)C(C)(C)C5)ncc3c(N)c2F)cnc2c1NCCO2 [WO2022098806, Compound 2-128] | 30 pM |
| Cc1c(-c2cc3nc(Nc4ccc([C@H]5CCN(C)C5=O)cc4)ncc3c(N)c2F)cnc2c1NCCO2 [WO2022098806, Compound 2-147] | 80 pM |

More lines, now with the values ahead:

| IC50 | SMILES |
| --- | --- |
| 4180 pM | COc1cc2c(cc1Nc1ncc3ccc(Nc4nc(S(C)(=O)=O)ccc4F)cc3n1)CN(C)CC2 [WO2022098806, Compound 3-36] |
| 130 pM | Cc1c(-c2cc3nc(Nc4ccc5c(c4)CN(C)CC5)ncc3c(N)c2F)cnc2nc[nH]c12 [WO2022098806, Compound 2-162] |
| 400 pM | Cc1c(-c2c(F)c(N)c3cnc(Nc4ccc(CS(=O)(=O)C(C)C)cc4)nc3c2Cl)cnc2c1NCCO2 [WO2022098806, Compound 2-133] |
| 15000 pM | COc1cc2c(cc1Nc1ncc3ccc(OCc4ccc(N5CCNCC5)nc4)cc3n1)CN(C)CC2 [WO2022098806, Compound 4-1] |
| 1170 pM | CNC(=O)[C@H]1CCc2cc(Nc3ncc4cc(F)c(-c5cnc6c(c5C)NCCO6)cc4n3)ccc21 [WO2022098806, Compound 1-119] |
| 80 pM | Cc1c(-c2cc3nc(Nc4ccc(C5(S(C)(=O)=O)CC5)cc4)ncc3c(N)c2F)cnc2c1NCCO2 [WO2022098806, Compound 2-148] |
| 25000 pM | COc1cc2c(cc1Nc1ncc3c(N)c(F)c(-c4cnc5ncsc5c4)cc3n1)CN(C)CC2 [WO2022098806, Compound 2-47] |
| 150 pM | Cc1c(-c2cc3nc(Nc4ccc5c(c4)CN(CC(C)(C)O)C5=O)ncc3c(N)c2F)cnc2c1NCCO2 [WO2022098806, Compound 2-42] |
| 60 pM | Cc1c(-c2cc3nc(Nc4ccc(CS(C)(=O)=O)cc4F)ncc3c(N)c2F)cnc2c1NCCO2 [WO2022098806, Compound 2-155] |
| 228000 pM | COc1cc2c(cc1Nc1ncc3ccc(NC4CCCC(O)C4)cc3n1)CN(C)CC2 (stereo not drawn) [WO2022098806, Compound 3-39] |
| 90 pM | Cc1c(-c2cc3nc(Nc4ccc(NS(C)(=O)=O)cc4)ncc3c(N)c2F)cnc2c1NCCO2 [WO2022098806, Compound 2-16] |
| 100 pM | Cc1c(-c2cc3nc(Nc4ccc(CS(C)(=O)=O)cc4)ncc3c(N)c2F)cnc2c1NCC(C)(C)O2 [WO2022098806, Compound 2-165] |
| 39000 pM | COc1cc2c(cc1Nc1ncc3ccc(-c4cncc(N5CCOCC5)c4)cc3n1)CNCC2 [WO2022098806, Compound 1-42] |
| 90 pM | Cc1c(-c2cc3nc(Nc4ccc5c(c4)CN(C)CC5)ncc3cc2F)cnc2c1NCCO2 [WO2022098806, Compound 1-114] |
| 40 pM | Cc1c(-c2cc3nc(Nc4cnc5c(c4)CN(C)CC5)ncc3c(N)c2F)cnc2c1NCCO2 [WO2022098806, Compound 2-183] |
| 189000 pM | COc1cc2c(cc1Nc1ncc3ccc(N4CC(O)(C(F)(F)F)C4)cc3n1)CN(C)CC2 [WO2022098806, Compound 3-54] |
| 70 pM | Cc1c(-c2cc3nc(Nc4ccc5c(c4)CCS(=O)(=O)C5)ncc3c(N)c2F)cnc2c1NCCO2 [WO2022098806, Compound 2-138] |

| IC50 | SMILES |
| --- | --- |
| 30 pM | CNC(=O)C1(c2ccc(Nc3ncc4c(N)c(F)c(-c5cnc6c(c5C)NCCO6)cc4n3)cc2)CCC1 [WO2022098806, Compound 2-82] |
| 50 pM | Cc1c(-c2cc3nc(Nc4ccc(N5CCOC5=O)cc4)ncc3c(N)c2F)cnc2c1NCCO2 [WO2022098806, Compound 2-67] |
| 205000 pM and 93000 pM | COc1cc2c(cc1Nc1ncc3ccc(N4CC5(CCCNCC5)OC4=O)cc3n1)CN(C)CC2 (stereo not drawn) [WO2022098806, Compound 3-5] |
| 40 pM | CNC(=O)[C@@H]1CCc2cc(Nc3ncc4cc(F)c(-c5cnc6c(c5C)NCCO6)cc4n3)ccc21 [WO2022098806, Compound 1-118] |
| 30 pM | Cc1c(-c2cc3nc(Nc4ccc5c(c4)CN(C)[C@@H](C)C5)ncc3c(N)c2F)cnc2c1NCCO2 [WO2022098806, Compound 2-85] |
| 149000 pM | COc1cc2c(cc1Nc1ncc3ccc(NCC4CNC(=O)O4)cc3n1)CN(C)CC2 (stereo not drawn) [WO2022098806, Compound 3-26] |
| 80 pM | Cc1c(-c2cc3nc(Nc4cccc(S(C)(=O)=O)c4)ncc3c(N)c2F)cnc2c1NCCO2 [WO2022098806, Compound 2-14] |
| 11000 pM | Cc1ccc(F)cc1-c1cc2nc(Nc3ccc4c(c3)CN(C)CC4)ncc2c(N)c1F [WO2022098806, Compound 2-174] |
| 148000 pM | COc1cc2c(cc1Nc1ncc3ccc(N(C)CC4CNC(=O)O4)cc3n1)CN(C)CC2 (stereo not drawn) [WO2022098806, Compound 3-30] |
| 50 pM | Cc1c(-c2cc3nc(Nc4ccc5c(c4)CN(C)CC5)ncc3c(N)c2F)cnc2c1NCC(C)O2 (stereo not drawn) [WO2022098806, Compound 2-141] |
| 80 pM | COc1cc([C@@H]2CCN(C)C2=O)ccc1Nc1ncc2c(N)c(F)c(-c3cnc4c(c3C)NCCO4)cc2n1 [WO2022098806, Compound 2-54] |
| 30 pM | Cc1c(-c2cc3nc(Nc4ccc5c(c4)CCN(C)C5)ncc3c(N)c2F)cnc2c1NCCO2 [WO2022098806, Compound 2-158] |
| 170 pM | CC[C@H]1COC(=O)N1c1cc(N)c2cnc(Nc3cc4c(cc3OC)CCN(C)C4)nc2c1 [WO2022098806, Compound 3-16] |
| 40 pM | Cc1c(-c2cc3nc(Nc4ccc5c(c4)CN(C)CCC5)ncc3c(N)c2F)cnc2c1NCCO2 [WO2022098806, Compound 2-117] |
| 270 pM | CNC(=O)c1ccc(Nc2ncc3c(N)c(F)c(-c4cnc5c(c4C)NCCO5)cc3n2)c(OC)c1 [WO2022098806, Compound 2-74] |
| 100 pM | COc1cc([C@@H](C)S(C)(=O)=O)ccc1Nc1ncc2c(N)c(F)c(-c3cnc4c(c3C)NCCO4)cc2n1 [WO2022098806, Compound 2-56] |
| 30000 pM | COc1cc2c(cc1Nc1ncc3ccc(Nc4ccc5c(c4)C(=O)NCC5)cc3n1)CN(C)CC2 [WO2022098806, Compound 3-21] |
